Test results reported in patent US7141546B1, “CRFR2 selective ligands” (priority 2001, dated 2006).
pIC50, pKi: −log10 of the molar value.

What was measured:
[1] = target: T1, CRFR1 (Homo sapiens, UniProt P34998); test: Competitive displacement binding assay, cloned hCRFR1 expressed in CHO cells
T1 construct: expressed in transfected cells
T1 sequence (P34998 24-415): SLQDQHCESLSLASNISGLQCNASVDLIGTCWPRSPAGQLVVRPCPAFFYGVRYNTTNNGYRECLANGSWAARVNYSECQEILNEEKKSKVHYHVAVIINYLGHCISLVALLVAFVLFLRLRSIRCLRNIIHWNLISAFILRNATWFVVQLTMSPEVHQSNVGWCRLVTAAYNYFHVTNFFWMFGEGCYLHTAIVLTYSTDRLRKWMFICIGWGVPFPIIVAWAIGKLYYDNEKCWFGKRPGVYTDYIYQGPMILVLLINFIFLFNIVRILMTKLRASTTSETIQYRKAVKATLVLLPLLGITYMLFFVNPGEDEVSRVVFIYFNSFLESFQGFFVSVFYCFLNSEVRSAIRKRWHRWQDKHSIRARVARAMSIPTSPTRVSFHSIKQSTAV
Text: A candidate CRFR2 ligand is also easily evaluated in a binding assay using known CRF receptors, such as that described in Perrin, M., et al., Endocrinology, 118, 1171–1179 (1986). CRF receptors and the details of binding assays are discussed later in this specification. […] One such representative binding assay utilizing CRF-R1 receptor is described in Chen, et al., P.N.A.S., 90, 8967–8971 (October 1993).
(§1) CRF receptors have now been cloned and are disclosed in the aforementioned Chen et al. article, in Perrin, M., et al., P.N.A.S, 92, 2969–2973 (March 1995), and in Lovenberg, T., et al., P.N.A.S., 92, 836–840 (January 1995). Binding affinity is a term used to refer to the strength of interaction between ligand and receptor. […] Ki (inhibitory binding affinity constant) is determined using a “standard” or “tracer” radioactive ligand and thus measures the displacement of the tracer from the receptor or binding protein; it is most properly expressed with reference to such tracer. However, so long as these assays are carefully performed under specific conditions with relatively low concentrations of receptor or the like, the calculated Ki will be substantially the same as its dissociation constant KD. […] It is particularly efficient to test for Ki because only a single tracer need be labelled, e.g. radioiodinated. […] Those reported hereinafter are derived using radioactively labeled [Tyr Glu^1, Nle^17]-Svg as a radioligand.
(§2) Binding assays with cells expressing human CRFR1 are carried out as described in the Chen et al. P.N.A.S., supra. The affinities of test peptides for CRFR1 and CRFR2b stably expressed in CHO cells were determined by competitive displacement of ^125I-(Nle^21, Tyr^32) ovine CRF (for CRFR1) or of [^125I-Tyr^o-]Ucn (for CRFR2b) as described.

[2] = target: T2, human CRFR2b (Homo sapiens, UniProt Q13324); test: Competitive displacement binding assay, stably transfected CHO cells expressing human CRFR2b
T2 construct: expressed in transfected cells
T2 sequence (Q13324 1-438 isoform Q13324-2): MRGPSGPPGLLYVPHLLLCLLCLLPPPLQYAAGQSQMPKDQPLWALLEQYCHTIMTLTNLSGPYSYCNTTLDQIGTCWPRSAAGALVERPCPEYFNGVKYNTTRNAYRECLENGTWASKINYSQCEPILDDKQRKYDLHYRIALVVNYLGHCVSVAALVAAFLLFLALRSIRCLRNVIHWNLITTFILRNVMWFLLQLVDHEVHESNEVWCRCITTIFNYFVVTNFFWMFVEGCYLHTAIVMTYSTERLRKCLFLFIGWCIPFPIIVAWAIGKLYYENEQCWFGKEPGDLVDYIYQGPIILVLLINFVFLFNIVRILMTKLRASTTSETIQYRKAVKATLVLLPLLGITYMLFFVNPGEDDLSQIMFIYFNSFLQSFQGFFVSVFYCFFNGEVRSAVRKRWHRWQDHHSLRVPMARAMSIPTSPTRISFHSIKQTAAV
Protocol: as §1, §2

[3] = target: T1, CRFR1; test: cAMP accumulation in CHO cells stably transfected with CRFR1 and treated with CRF; format: cell-based
Text: (§3) In addition to inhibiting CRF receptor binding, a candidate's CRF receptor antagonist activity may be established by the ability of the compound to antagonize an activity associated with CRF. For example, CRF is known to stimulate various biochemical processes, including adenylate cyclase activity. Therefore, compounds may be evaluated as CRF antagonists by their ability to antagonize CRF-stimulated adenylate cyclase activity by, for example, measuring cAMP levels. The inhibition of CRF-stimulated adenylate cyclase activity, determined by the assay described by G. Battaglia et al., Synapse 1:572 (1987), provides an assay for determining a compound's ability to antagonize CRF activity. Accordingly, CRF receptor antagonist activity may be determined by assay techniques which generally include an initial binding assay followed by such a cAMP screening protocol.
as §2

[4] = target: T3, CRFR2 (Homo sapiens, UniProt Q13324); test: cAMP accumulation in CHO cells stably transfected with CRFR2 and treated with CRF; format: cell-based; settings: CHO cells stably transfected with CRFR2, treated with CRF
T3 construct: expressed in transfected cells
T3 sequence (Q13324 1-438 isoform Q13324-2): T2 sequence (Q13324 1-438 isoform Q13324-2)
Text: as §3, with “protocol. […]” for “protocol.”

[5] = tested on: CRF receptors; test: Intrinsic CRF activity of the antagonist; settings: when administered at the highest dosage

CCCC[C@H](NC(=O)[C@H](CCCCN)NC(=O)[C@H](CCCNC(=N)N)NC(=O)[C@H](CC(C)C)NC(=O)[C@](C)(CC(C)C)NC(=O)[C@H](Cc1c[nH]cn1)NC(=O)[C@@H](Cc1ccccc1)NC(C)=O)C(=O)N[C@H](C(=O)N[C@@H](CCC(=O)O)C(=O)N[C@H](C(=O)N[C@@H](CCC(=O)O)C(=O)N[C@@H](CCCCN)C(=O)N[C@@H](CCC(N)=O)C(=O)N[C@@H](CCC(=O)O)C(=O)N[C@@H](CCCCN)C(=O)N[C@@H](CCC(=O)O)C(=O)N[C@@H](CCCCN)C(=O)N[C@@H](CCC(N)=O)C(=O)N[C@@H](CCC(N)=O)C(=O)N[C@@H](C)C(=O)N[C@H]1CCC(=O)NCCCC[C@@H](C(=O)N[C@@H](CC(C)C)C(=O)N[C@@H](CC(C)C)C(=O)N[C@@H](CC(C)C)C(=O)N[C@@H](CC(=O)O)C(=O)N[C@@](C)(CC(C)C)C(=O)N[C@H](C(N)=O)[C@@H](C)CC)NC(=O)[C@H](CC(N)=O)NC(=O)[C@H](CC(N)=O)NC1=O)[C@@H](C)CC)[C@@H](C)CC [Example 1 cyclic peptide, (cyclo 31–34)[Ac-D-Phe^11, His^12, CML ^13,39, Nle^17, Glu^31, Lys^34]-sauvagine(11–40)]
pIC50 [1]: < 6.30
pKi [1]: ~6.00
pKi [2]: 8.96
antagonism of CRF activity with respect to CRFR1 (cAMP accumulation) [3]: little or no effect
antagonism of CRF activity with respect to CRFR2 (cAMP accumulation) [4]: effectively antagonize CRF activity
intrinsic CRF activity [5]: only minor intrinsic CRF activity
